Laboratory results published in patent US20150315241A1, “Antibiotic Peptides” (priority 2007, published 2015).
≈ marks a conversion by molar mass, not a printed value. Read-outs that look alike come from different tables or passages of the source. Where a SMILES comes first, the peptide text is derived from it. Bridges are numbered along the chain shown (N, C = ends). Roman numbers before positions name the chains, in order. [ ]: non-standard residue; d: D form. Hyp = O=C(O)[C@@H]1C[C@@H](O)CN1; NMeL = CN[C@@H](CC(C)C)C(=O)O; Orn = NCCC[C@H](N)C(=O)O; Dab = NCC[C@H](N)C(=O)O

Tests used:
M. luteus ATCC 10240 = type: cell-based, Micrococcus luteus
Procedure, shortened: (§1)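 Bacteria grown overnight in NB at 37° C. were adjusted to 5×10^6 CFU/mL in 1% TSB and mixed 1:1 with a two-fold peptide series (final 125 μg/mL–60 ng/mL). After 20 hrs at 37° C., A595 was read; triplicates.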

B. subtilis 347 = type: cell-based, Bactillus subtillis
Procedure, shortened: as §1

K. pneumonia 681 = type: cell-based, Klebsiella pneumoniae
Procedure, shortened: as §1

E. coli BL 21 AI = test: Growth inhibition assay (MIC); type: cell-based, Escherichia coli; details: 1% TSB, 37° C., 20 hrs
Procedure, shortened: as §1

[1] = test system: S. enterica subsp. Enterica serovar. typhi G10215 ATCC 700408; type: cell-based, Salmonella enterica; details: ATCC 700408, 20 h
Procedure, shortened: (§2)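 Two-fold serial broth microdilution in 1% TSB, final peptide 125 μg/mL down to 60 ng/mL. Inoculum from overnight nutrient-broth cultures adjusted to 5×10^6 CFU/mL. After 20 hrs at 37° C., growth was read as absorbance at 595 nm; triplicates, sterile water as negative control.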

E. coli 10233 = type: cell-based, Escherichia coli
Procedure, shortened: as §1

E. coli 1103 = type: cell-based, Escherichia coli
Procedure, shortened: as §1

E. coli 45849 = test: Growth inhibition assay (MIC); type: cell-based, Escherichia coli
Procedure, shortened: as §2

in vitro = in vitro ADME, mouse; details: 37° C.
Procedure: Serum stability studies were carried out in duplicate as described by Hoffmann et al.. Briefly, 28 μL of an aqueous peptide or peptidomimetics solution (0.5 mg/mL) was added to 0.2 mL freshly pooled 25% mouse serum (Sigma-Aldrich GmbH, Taufkirchen, Germany) in water. The mixtures were incubated at 37° C. under gentle stirring. The proteins were precipitated with 40 μL of 15% aqueous TCA after incubation times of 0, 0.5, 1, 2, 4 and 6 h at 0° C. for 20 min before centrifuged (13500×G) at 4° C. for 5 min. The supernatants of all samples (240 μL) were neutralized with 1 mol/L aqueous NaOH and immediately stored at −20° C. The supernatants were analyzed by RP-HPLC using a linear acetonitrile gradient as described above with 0.1% TFA as ion pair reagent. Collected fractions of the main peaks were further analyzed by tandem mass spectrometry (MALDI-TOF/TOF-MS, 4700 Proteomics Analyzer, Applied Biosystems GmbH, Weiterstadt, Germany) in positive ion reflector mode using α-cyanohydroxycinnamic acid (50% CH3CN in 0.1% aqueous TFA) as matrix to identify the degradation products of the peptides and peptidomimetics, i.e., metabolites, at the different time points. Serum control samples consisted of 200 μL of pooled 25% mouse serum in water, which were also precipitated with 40 μL 15% aqueous TCA, as described before. Peptide reference samples consisted of 28 μL of the peptide stock solution diluted in 0.2 mL water and 40 μL of 15% aqueous trichloroacetic acid (TCA).

S. typhi S5 = type: cell-based, Salmonella typhi; details: S5, 20 h
Procedure, shortened: as §2

K. Pneumonia 123132 = test: Growth inhibition assay (MIC); type: cell-based, Klebsiella pneumoniae
Procedure, shortened: as §2

[2] = test system: K. Pneumonia K6, ATCC 700603; test: Growth inhibition assay (MIC); type: cell-based, Klebsiella pneumoniae; details: multidrug resistant strain; 1% TSB, 37° C., 20 hrs
Procedure, shortened: as §2

E. coli D31 = type: cell-based, Escherichia coli; details: D31, 20 h
Procedure, shortened: as §2

[3] = test system: R. radiobatter ATCC 15955; test: Growth inhibition assay (MIC); type: cell-based, Rhizobium radiobacter
Procedure, shortened: as §2

[4] = 25% aqueous mouse serum, read-out: Half-life time
[5] = multidrug resistant strain, 1% TSB, 37° C., 20 hrs

Row | SMILES | MIC E. coli BL 21 AI (E. coli BL 21 AI) | MIC S. enterica subsp. Enterica serovar. typhi G10215 ATCC 700408 [1] | half-life at 0.061 mg/mL (in vitro; [4]) | MIC S. typhi S5 (S. typhi S5) | MIC K. Pneumonia K6, ATCC 700603 [2] | MIC E. coli D31 (E. coli D31) | MIC M. luteus ATCC 10240 (M. luteus ATCC 10240; ATCC 10240, 20 h) | MIC B. subtilis 347 (B. subtilis 347; 347, 20 h) | MIC K. pneumonia 681 (K. pneumonia 681; 20 h) | MIC E. coli 10233 (E. coli 10233; 10233, 20 h) | MIC E. coli 1103 (E. coli 1103; 1103, 20 h) | MIC E. coli 45849 (E. coli 45849; [5]) | MIC K. Pneumonia 123132 (K. Pneumonia 123132; [5]) | MIC R. radiobatter ATCC 15955 [3, 5] | other results
1 | CC[C@H](C)[C@H](NC(=O)[C@H](Cc1ccc(O)cc1)NC(=O)[C@@H](NC(=O)[C@@H]1CCCN1C(=O)[C@H](CCCNC(=N)N)NC(=O)[C@H](CC(N)=O)NC(=O)[C@H](CC(N)=O)NC(=O)[C@@H](N)CCCN)C(C)C)C(=O)N1CCC[C@H]1C(=O)N[C@@H](CCCN)C(=O)N1CCC[C@H]1C(=O)N[C@@H](CCCNC(=N)N)C(=O)N1CCC[C@H]1C(=O)N1CCC[C@H]1C(=O)N[C@@H](Cc1c[nH]cn1)C(=O)N1CCC[C@H]1C(=O)N[C@@H](CCCNC(=N)N)C(=O)N[C@@H](CC(C)C)C(N)=O [compound 12] (H-[Orn]NNRPVYIP[Orn]PRPPHPRL-NH2) | 0.98 µg/mL (≈ 0.456 µM) | <0.25 µg/mL | 0.25 h | <0.5 µg/mL | 4 µg/mL (≈ 1.86 µM) | 4 µg/mL (≈ 1.86 µM) | – | – | – | – | – | – | – | – | MIC M. luteus ATCC 10240 (M. luteus ATCC 10240; 1% TSB, 37° C., 20 hrs): 1.95 µg/mL (≈ 0.907 µM); MIC B. subtilis 347 (B. subtilis 347; 1% TSB, 37° C., 20 hrs): 62.5 µg/mL (≈ 29.1 µM); MIC K. pneumonia 681 (K. pneumonia 681; 1% TSB, 37° C., 20 hrs): 7.81 µg/mL (≈ 3.63 µM); MIC E. coli 10233 (E. coli 10233; 1% TSB, 37° C., 20 hrs): 0.98 to 1.95 µg/mL; MIC E. coli 1103 (E. coli 1103; 1% TSB, 37° C., 20 hrs): 3.91 µg/mL (≈ 1.82 µM); MIC E. coli 45849 (E. coli 45849; 45849, 20 h): 1 µg/mL (≈ 0.465 µM); MIC K. Pneumonia 123132 (K. Pneumonia 123132; 20 h): 4 µg/mL (≈ 1.86 µM); MIC R. radiobatter ATCC 15955 ([3]; ATCC 15955, 20 h): 0.65 µg/mL (≈ 0.302 µM)
2 | CC[C@H](C)[C@H](NC(=O)[C@H](Cc1ccc(O)cc1)NC(=O)[C@@H](NC(=O)[C@@H]1CCCN1C(=O)[C@H](CCCNC(=N)N)NC(=O)[C@H](CC(N)=O)NC(=O)[C@H](CC(N)=O)NC(=O)[C@H](CCCN)NC(C)=O)C(C)C)C(=O)N1CCC[C@H]1C(=O)N[C@@H](CCC(N)=O)C(=O)N1CCC[C@H]1C(=O)N[C@@H](CCCNC(=N)N)C(=O)N1CCC[C@H]1C(=O)N1CCC[C@H]1C(=O)N[C@@H](Cc1c[nH]cn1)C(=O)N1CCC[C@H]1C(=O)N[C@@H](CCCNC(=N)N)C(=O)N(C)[C@@H](CC(C)C)C(N)=O [compound 32] (Ac-[Orn]NNRPVYIPQPRPPHPR[NMeL]-NH2) | 15.63 µg/mL (≈ 7.04 µM) | 8 µg/mL (≈ 3.6 µM) | – | 32 µg/mL (≈ 14.4 µM) | >128 µg/mL | 64 µg/mL (≈ 28.8 µM) | 7.81 µg/mL (≈ 3.52 µM) | >125 µg/mL | >125 µg/mL | 31.25 µg/mL (≈ 14.1 µM) | 31.4 µg/mL (≈ 14.1 µM) | 8 µg/mL (≈ 3.6 µM) | >64 µg/mL | 1.3 µg/mL (≈ 0.585 µM) | Half-life time (in vitro; 25% aqueous mouse serum): >6 h; half-life at 0.061 mg/mL (in vitro; mouse, 25% aqueous serum, read-out: half-life): > 6 h
3 | CC[C@H](C)[C@H](NC(=O)[C@@H]1CCCN1C(=O)[C@H](CCCNC(=N)N)NC(=O)[C@@H]1CCCN1C(=O)[C@H](Cc1c[nH]cn1)NC(=O)[C@@H]1CCCN1C(=O)[C@@H]1CCCN1C(=O)[C@H](CCCNC(=N)N)NC(=O)[C@@H]1CCCN1C(=O)[C@H](CCCNC(=N)N)NC(=O)[C@@H]1CCCN1C(=O)[C@@H](NC(=O)[C@H](Cc1ccc(O)cc1)NC(=O)[C@@H](NC(=O)[C@@H]1CCCN1C(=O)[C@H](CCCNC(=N)N)NC(=O)[C@H](CC(N)=O)NC(=O)[C@H](CC(N)=O)NC(=O)[C@@H](N)CCCN)C(C)C)[C@@H](C)CC)C(=O)N[C@@H](CCCNC(=N)N)C(=O)N[C@H](C(=O)O)C(C)C [compound 23] (H-[Orn]NNRPVYIPRPRPPHPRPIRV-OH) | 1.95 to 3.91 µg/mL | 8 µg/mL (≈ 3.14 µM) | 4 h | 8 µg/mL (≈ 3.14 µM) | 32 µg/mL (≈ 12.6 µM) | 64 µg/mL (≈ 25.1 µM) | 0.12 µg/mL (≈ 0.0471 µM) | 125 µg/mL (≈ 49.1 µM) | 62.5 µg/mL (≈ 24.5 µM) | 3.91 µg/mL (≈ 1.54 µM) | 7.81 µg/mL (≈ 3.07 µM) | 8 µg/mL (≈ 3.14 µM) | 16 µg/mL (≈ 6.28 µM) | 0.65 µg/mL (≈ 0.255 µM) | –
4 | CC[C@H](C)[C@H](NC(=O)[C@H](Cc1ccc(O)cc1)NC(=O)[C@@H](NC(=O)[C@@H]1CCCN1C(=O)[C@H](CCCNC(=N)N)NC(=O)[C@H](CC(N)=O)NC(=O)[C@H](CC(N)=O)NC(=O)[C@H](CCCN)NC(C)=O)C(C)C)C(=O)N1CCC[C@H]1C(=O)N[C@@H](CCCNC(=N)N)C(=O)N1C[C@H](O)C[C@H]1C(=O)N[C@@H](CCCNC(=N)N)C(=O)N1CCC[C@H]1C(=O)N1CCC[C@H]1C(=O)N[C@@H](Cc1c[nH]cn1)C(=O)N1CCC[C@H]1C(=O)N[C@@H](CCCNC(=N)N)C(=O)N[C@@H](CC(C)C)C(N)=O [compound 40] (Ac-[Orn]NNRPVYIPR[Hyp]RPPHPRL-NH2) | – | 4 µg/mL (≈ 1.78 µM) | – | <0.5 µg/mL | 16 µg/mL (≈ 7.11 µM) | 8 µg/mL (≈ 3.55 µM) | – | 125 µg/mL (≈ 55.5 µM) | 3.91 µg/mL (≈ 1.74 µM) | 1.95 µg/mL (≈ 0.866 µM) | 3.91 µg/mL (≈ 1.74 µM) | 1 µg/mL (≈ 0.444 µM) | 4 µg/mL (≈ 1.78 µM) | 0.33 µg/mL (≈ 0.147 µM) | –
5 | CC[C@H](C)[C@H](NC(=O)[C@H](Cc1ccc(O)cc1)NC(=O)[C@@H](NC(=O)[C@@H]1CCCN1C(=O)[C@H](CCCNC(=N)N)NC(=O)[C@H](CC(N)=O)NC(=O)[C@H](CC(N)=O)NC(=O)[C@H](CCCN)NC(C)=O)C(C)C)C(=O)N1CCC[C@H]1C(=O)N[C@@H](CCCNC(=N)N)C(=O)N1CCC[C@H]1C(=O)N[C@@H](CCCNC(=N)N)C(=O)N1CCC[C@H]1C(=O)N1CCC[C@H]1C(=O)N[C@@H](Cc1c[nH]cn1)C(=O)N1CCC[C@H]1C(=O)N[C@@H](CCCNC(=N)N)C(=O)N[C@@H](CC(C)C)C(=O)NCC[C@H](NC(=O)[C@H](CC(C)C)NC(=O)[C@H](CCCNC(=N)N)NC(=O)[C@@H]1CCCN1C(=O)[C@H](Cc1c[nH]cn1)NC(=O)[C@@H]1CCCN1C(=O)[C@@H]1CCCN1C(=O)[C@H](CCCNC(=N)N)NC(=O)[C@@H]1CCCN1C(=O)[C@H](CCCNC(=N)N)NC(=O)[C@@H]1CCCN1C(=O)[C@@H](NC(=O)[C@H](Cc1ccc(O)cc1)NC(=O)[C@@H](NC(=O)[C@@H]1CCCN1C(=O)[C@H](CCCNC(=N)N)NC(=O)[C@H](CC(N)=O)NC(=O)[C@H](CC(N)=O)NC(=O)[C@H](CCCN)NC(C)=O)C(C)C)[C@@H](C)CC)C(=O)O [compound 83] (I: Ac-[Orn]NNRPVYIPRPRPPHPRL[Dab]-OH / II: Ac-[Orn]NNRPVYIPRPRPPHPRL; amide I:19-II:C) | 1.95 µg/mL (≈ 0.428 µM) | 4 µg/mL (≈ 0.878 µM) | – | 4 µg/mL (≈ 0.878 µM) | 8 µg/mL (≈ 1.76 µM) | 2 µg/mL (≈ 0.439 µM) | 1.95 µg/mL (≈ 0.428 µM) | 15.6 µg/mL (≈ 3.43 µM) | 125 µg/mL (≈ 27.5 µM) | 31.25 µg/mL (≈ 6.86 µM) | – | 8 µg/mL (≈ 1.76 µM) | 8 µg/mL (≈ 1.76 µM) | – | half-life (in vitro; [4]): 0.25 h
